This is an account of results in ChEMBL document CHEMBL5390254, “Discovery and Optimization of Novel hDHODH Inhibitors for the Treatment of Inflammatory Bowel Disease” (J Med Chem, 2023).

The subject of experiment [1] is Mus musculus. Briefly: Anti-inflammatory activity against DSS-induced acute ulcerative colitis in C57BL/6 mouse model assessed as decrease in IL-6 production in colon at 40 mg/kg, po QD for 6 days by ELISA. It is filed as functional. As to conditions: time 6.0 day. Background: An ELISA detects its analyte on a solid surface through an enzyme-linked reagent.
Experiment [2] has as its system Mus musculus. Briefly: Anti-inflammatory activity against DSS-induced acute ulcerative colitis in C57BL/6 mouse model assessed as decrease in IL-6 mRNA expression level in colon at 40 mg/kg, po QD for 6 days by RT-PCR analysis. It is filed as functional, organism-based. As to conditions: time 6.0 day.
Experiment [3] relates to Mus musculus. Description: Anti-inflammatory activity against DSS-induced acute ulcerative colitis in C57BL/6 mouse model assessed as decrease in IL-17 mRNA expression level in colon at 40 mg/kg, po QD for 6 days by RT-PCR analysis. As to conditions: time 6.0 day. It is filed as functional, organism-based.
Experiment [4] concerns Mus musculus. Description: Anti-inflammatory activity against DSS-induced acute ulcerative colitis in C57BL/6 mouse model assessed as decrease in IL-1beta mRNA expression level in colon at 40 mg/kg, po QD for 6 days by RT-PCR analysis. It is filed as functional, organism-based. As to conditions: time 6.0 day.
Experiment [5] deals with Mus musculus. Description: Anti-inflammatory activity against DSS-induced acute ulcerative colitis in C57BL/6 mouse model assessed as decrease in body weight loss at 80 mg/kg, po QD for 6 days (Rvb= -13.4%). As to conditions: time 6 day. Type of experiment: functional. More on the design: scale not given: the % may be the effect or the level left.
Experiment [6] concerns Mus musculus. Briefly: Anti-inflammatory activity against DSS-induced acute ulcerative colitis in C57BL/6 mouse model assessed as decrease in colon length shortening at 40 mg/kg, po QD for 6 days (Rvb= 5.5cm). As to conditions: time 6 day. Type of experiment: functional.
The subject of experiment [7] is Mus musculus. Briefly: Anti-inflammatory activity against DSS-induced acute ulcerative colitis in C57BL/6 mouse model assessed as decrease in IL-1beta production in colon at 40 mg/kg, po QD for 6 days by ELISA. It is filed as functional. To be noted: time 6.0 day.
Experiment [8] has as its system Mus musculus. Description: Anti-inflammatory activity against DSS-induced acute ulcerative colitis in C57BL/6 mouse model assessed as increase in colon length at 80 mg/kg, po QD for 6 days (Rvb= 5.3cm). It is filed as functional. To be noted: time 6 day.
Experiment [9] has as its system Mus musculus. Briefly: Anti-inflammatory activity against DSS-induced acute ulcerative colitis in C57BL/6 mouse model assessed as decrease in IL-17 production in colon at 40 mg/kg, po QD for 6 days by ELISA. Type of experiment: functional. As to conditions: time 6.0 day.
For experiment [10], the system named is Mus musculus. Description: Anti-inflammatory activity against DSS-induced acute ulcerative colitis in C57BL/6 mouse model assessed as decrease in colon tissue damage score at 40 mg/kg, po QD for 6 days relative to DSS group. To be noted: time 6 day. Set-up: scale not given: the % may be the effect or the level left. It is filed as functional.

Active and inactive are the calls of the source. The rule behind the calls is not given here.

For `C[C@@H]1CCN(C(=O)CC#N)C[C@@H]1N(C)c1ncnc2[nH]ccc12` [TOFACITINIB], the result in experiment [1], in [2], in [3], in experiment [4], in [7] and in experiment [9] was Active. For the same compound, the Activity in experiment [5] is -3.9%; in experiment [6], 6.3 cm; in experiment [8] it was 6.7 cm; in experiment [10] it was 45.45%.
